# Source: patent publication US20250127905A1, “GLUTARIMIDE COMPOUND AND USE THEREOF” (MEDSHINE DISCOVERY INC., priority 2021, published 2025)
# Tests used:
# [1] = tested on: imiquimod-induced psoriasis model; experiment: Imiquimod-induced psoriasis model in mice: pathological score, ear thickness, spleen weight; assay type: in vivo, BALB/c mice; conditions: Mean±SEM; for Spleen weight: D7; for Increased ear thickness: D7 relative to D0
# Method: It is to evaluate the efficacy of compounds on imiquimod-induced psoriasis model in BALB/c mice.
# Animals: BALB/c mice, male, 18 to 20 g; source: Zhejiang Vital River Laboratory Animal Technology Co., Ltd.
# (§1) Experimental grouping and administration: After acclimatization, […] male BALB/c mice were randomly divided into 5 groups (n=6 or 9) according to body weight: normal (control, G1) group, vehicle (model, G2) group, test compound low-dose (30 mg/kg, BID, G3) group, test compound medium-dose (100 mg/kg, BID, G4) group, and test compound high-dose (300 mg/kg, BID, G5) group.
# (§2) Model induction: the dorsal skin of the experimental animals was shaved (surface area=2×3 cm) before the application of imiquimod. In addition to the normal group, imiquimod cream was topically applied to the shaved back (47 mg) and left ear (15 mg) at 62 mg/mouse per day for 8 consecutive days (from D0 to D7). For administration groups (G2 to G5), the vehicle or test compound was intragastrically administered twice a day from D-1 to D6 and only once on D7. The administration volume was 10 mL/kg in each group. (Note: It is specified that the first application of imiquimod is D0; since it is administered one day earlier, the first administration is D-1).
# Clinical score: Clinical disease scores for erythema, scale, and thickness were measured daily according to a grading system, and cumulative scores were calculated.
# Ear thickness: The left ear thickness was measured on D0, D3, D5, and D7 for a total of 4 times, and the increased ear thickness on D7 relative to D0 was calculated.
# Spleen weight: The spleen weight was measured after the animals were sacrificed on D7.
# (§3) Experimental data were expressed as Mean±SEM; data were statistically analyzed using one-way ANOVA in GraphPad Prism software, and p<0.05 was considered a significant difference between the two groups.
# [2] = tested on: interleukin 17, interleukin 6, and tumor necrosis factor α; experiment: Imiquimod-induced psoriasis model in mice: relative levels of skin inflammatory factors (fluorescence quantitative PCR); assay type: in vivo, BALB/c mice; conditions: lesion skin D7, Mean±SEM
# Method: as §1, §2
# Inflammatory factors: The skin was taken from the lesion site after the animals were sacrificed on D7, and the relative levels of interleukin 17, interleukin 6, and tumor necrosis factor α were detected using fluorescence quantitative PCR.
# as §3
smiles,measurement,setting,value
O=C1CCC(c2noc3c(NC(=O)CN4CCN(C[C@H]5CC[C@H](n6cc(NC(=O)c7cnn8ccc(N9C[C@H]%10C[C@@H]9CO%10)nc78)c(C(F)F)n6)CC5)CC4)cccc23)C(=O)N1 (stereo partly drawn) [WX015],Spleen weight,[1]; 30 mg/kg BID intragastric,175.78 ± 13.01 mg
same,Increased ear thickness,[1]; 30 mg/kg BID intragastric,208 ± 6 µm
same,Pathological score,[1]; 30 mg/kg BID intragastric,20.2 ± 0.89
same,Spleen weight,[1]; 100 mg/kg BID intragastric,153.78 ± 11.67 mg
same,Increased ear thickness,[1]; 100 mg/kg BID intragastric,217 ± 5.67 µm
same,Pathological score,[1]; 100 mg/kg BID intragastric,20.5 ± 1.18
same,Spleen weight,[1]; 300 mg/kg BID intragastric,132.78 ± 3.94 mg
same,Increased ear thickness,[1]; 300 mg/kg BID intragastric,185 ± 2.68 µm
same,Pathological score,[1]; 300 mg/kg BID intragastric,19.0 ± 0.55
same,Interleukin 6 relative level,[2]; 30 mg/kg BID,8.0 ± 3.3
same,Interleukin 17 relative level,[2]; 30 mg/kg BID,102.4 ± 36.9
same,Tumor necrosis factor α relative level,[2]; 30 mg/kg BID,5.2 ± 0.7
same,Interleukin 6 relative level,[2]; 100 mg/kg BID,13.8 ± 2.3
same,Interleukin 17 relative level,[2]; 100 mg/kg BID,113.1 ± 49.4
same,Tumor necrosis factor α relative level,[2]; 100 mg/kg BID,5.2 ± 0.8
same,Interleukin 6 relative level,[2]; 300 mg/kg BID,4.7 ± 2.0
same,Interleukin 17 relative level,[2]; 300 mg/kg BID,97.3 ± 35.3
same,Tumor necrosis factor α relative level,[2]; 300 mg/kg BID,3.7 ± 0.6
